From ChEMBL document CHEMBL1201862, “PubChem BioAssay data set” (2004)
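How tested: cells in 96-well plates exposed to compound for 48 hours at five concentrations. GI50: concentration for 50% inhibition of growth.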 Active and inactive are the calls of the source. Cut-off read from the data, not from the text of the source: active = GI50 up to about 1.1 µM and inactive = higher.

What was measured:
Experiment in all cases: DTP human tumour cell line panel, 48 h
786-0 = tested on: 786-0
A549 = tested on: A549
ACHN = tested on: ACHN
BT-549 = tested on: BT-549
CCRF-CEM = tested on: CCRF-CEM
COLO 205 = tested on: COLO 205
DU-145 = tested on: DU-145
EKVX = tested on: EKVX
HCT-116 = tested on: HCT-116
HCT-15 = tested on: HCT-15
HL-60 = tested on: HL-60
HOP-62 = tested on: HOP-62
HT-29 = tested on: HT-29
Hs-578T = tested on: Hs-578T
IGROV-1 = tested on: IGROV-1
KM12 = tested on: KM12
LOX IMVI = tested on: LOX IMVI
M14 = tested on: M14
MCF7 = tested on: MCF7
MDA-MB-231 = tested on: MDA-MB-231
MDA-MB-435 = tested on: MDA-MB-435
MDA-N = tested on: MDA-N
NCI-H226 = tested on: NCI-H226
NCI-H23 = tested on: NCI-H23
NCI-H460 = tested on: NCI-H460
NCI-H522 = tested on: NCI-H522
NCI/ADR-RES = tested on: NCI/ADR-RES
OVCAR-3 = tested on: OVCAR-3
OVCAR-4 = tested on: OVCAR-4
OVCAR-5 = tested on: OVCAR-5
OVCAR-8 = tested on: OVCAR-8
PC-3 = tested on: PC-3
RPMI-8226 = tested on: RPMI-8226
RXF 393 = tested on: RXF 393
SF-268 = tested on: SF-268
SF-295 = tested on: SF-295
SF-539 = tested on: SF-539
SK-MEL-28 = tested on: SK-MEL-28
SK-MEL-2 = tested on: SK-MEL-2
SK-MEL-5 = tested on: SK-MEL-5
SK-OV-3 = tested on: SK-OV-3
SN12C = tested on: SN12C
SNB-19 = tested on: SNB-19
SNB-75 = tested on: SNB-75
SW-620 = tested on: SW-620
TK-10 = tested on: TK-10
U-251 = tested on: U-251
UACC-257 = tested on: UACC-257
UACC-62 = tested on: UACC-62
UO-31 = tested on: UO-31
A498 = tested on: A498
CAKI-1 = tested on: CAKI-1
HCC 2998 = tested on: HCC 2998
HOP-92 = tested on: HOP-92
K562 = tested on: K562
MOLT-4 = tested on: MOLT-4
Malme-3M = tested on: Malme-3M
SR = tested on: SR
T47D = tested on: T47D

O=C(/C=C/c1ccc(O)c([N+](=O)[O-])c1)CC(=O)/C=C/c1ccc(O)c([N+](=O)[O-])c1
GI50 (786-0): > 100 µM (inactive) | GI50 (A549): 53.7 µM (inactive) | GI50 (ACHN): > 100 µM (inactive) | GI50 (BT-549): > 100 µM (inactive) | GI50 (CCRF-CEM): 30.5 µM (inactive) | GI50 (COLO 205): 47.4 µM (inactive) | GI50 (DU-145): 28.4 µM (inactive) | GI50 (EKVX): 50.9 µM (inactive) | GI50 (HCT-116): 41.6 µM (inactive) | GI50 (HCT-15): 38.5 µM | GI50 (HL-60): 21.7 µM (inactive) | GI50 (HOP-62): 48.9 µM (inactive) | GI50 (HT-29): 42.7 µM (inactive) | GI50 (Hs-578T): > 100 µM (inactive) | GI50 (IGROV-1): 24.9 µM (inactive) | GI50 (KM12): 30.5 µM (inactive) | GI50 (LOX IMVI): 14.4 µM (inactive) | GI50 (M14): 65.8 µM (inactive) | GI50 (MCF7): 53.5 µM (inactive) | GI50 (MDA-MB-231): 23.4 µM (inactive) | GI50 (MDA-MB-435): 36.1 µM (inactive) | GI50 (MDA-N): 86.5 µM (inactive) | GI50 (NCI-H226): > 100 µM (inactive) | GI50 (NCI-H23): 34.8 µM (inactive) | GI50 (NCI-H460): 30.5 µM (inactive) | GI50 (NCI-H522): 36.3 µM (inactive) | GI50 (NCI/ADR-RES): 35.3 µM (inactive) | GI50 (OVCAR-3): 26.6 µM (inactive) | GI50 (OVCAR-4): 79.3 µM (inactive) | GI50 (OVCAR-5): 44.9 µM (inactive) | GI50 (OVCAR-8): 19.8 µM (inactive) | GI50 (PC-3): 56.4 µM (inactive) | GI50 (RPMI-8226): 14.4 µM (inactive) | GI50 (RXF 393): 44.4 µM (inactive) | GI50 (SF-268): 54.6 µM (inactive) | GI50 (SF-295): 62.5 µM (inactive) | GI50 (SF-539): > 100 µM (inactive) | GI50 (SK-MEL-28): 33.9 µM (inactive) | GI50 (SK-MEL-2): 41.1 µM (inactive) | GI50 (SK-MEL-5): 49.7 µM (inactive) | GI50 (SK-OV-3): 83.2 µM (inactive) | GI50 (SN12C): > 100 µM (inactive) | GI50 (SNB-19): 88.9 µM (inactive) | GI50 (SNB-75): > 100 µM (inactive) | GI50 (SW-620): 37.1 µM (inactive) | GI50 (TK-10): 92.5 µM (inactive) | GI50 (U-251): 21.4 µM (inactive) | GI50 (UACC-257): > 100 µM (inactive) | GI50 (UACC-62): 88.1 µM (inactive) | GI50 (UO-31): > 100 µM (inactive)

O=C(O)CN1C=C(C(=O)c2cc3ccccc3n2S(=O)(=O)c2ccccc2)CCC1
GI50 (786-0): 50.7 µM (inactive) | GI50 (A498): 69.3 µM (inactive) | GI50 (A549): 68.1 µM (inactive) | GI50 (ACHN): 29.6 µM (inactive) | GI50 (BT-549): 83.2 µM (inactive) | GI50 (CAKI-1): > 100 µM (inactive) | GI50 (CCRF-CEM): 30.9 µM (inactive) | GI50 (COLO 205): 20.9 µM (inactive) | GI50 (DU-145): > 100 µM (inactive) | GI50 (EKVX): 54.8 µM (inactive) | GI50 (HCC 2998): 69.7 µM (inactive) | GI50 (HCT-116): 57.3 µM (inactive) | GI50 (HCT-15): 49.2 µM | GI50 (HL-60): 32.2 µM (inactive) | GI50 (HOP-62): > 100 µM (inactive) | GI50 (HOP-92): 46.9 µM (inactive) | GI50 (HT-29): 50 µM (inactive) | GI50 (Hs-578T): 81.3 µM (inactive) | GI50 (IGROV-1): 37.2 µM (inactive) | GI50 (K562): 24.2 µM (inactive) | GI50 (KM12): 37.1 µM (inactive) | GI50 (LOX IMVI): 64.9 µM (inactive) | GI50 (M14): 69.8 µM (inactive) | GI50 (MCF7): 49.9 µM (inactive) | GI50 (MDA-MB-231): > 100 µM (inactive) | GI50 (MDA-MB-435): 43.5 µM (inactive) | GI50 (MOLT-4): 38.5 µM (inactive) | GI50 (Malme-3M): 28.4 µM (inactive) | GI50 (NCI-H226): 46.8 µM (inactive) | GI50 (NCI-H23): 50.6 µM (inactive) | GI50 (NCI-H460): 96.2 µM (inactive) | GI50 (NCI/ADR-RES): 66.1 µM (inactive) | GI50 (OVCAR-3): 51.9 µM (inactive) | GI50 (OVCAR-4): 83.9 µM (inactive) | GI50 (OVCAR-5): > 100 µM (inactive) | GI50 (OVCAR-8): 64.6 µM (inactive) | GI50 (PC-3): 50.4 µM (inactive) | GI50 (RXF 393): 54.5 µM (inactive) | GI50 (SF-268): > 100 µM (inactive) | GI50 (SF-295): 69.5 µM (inactive) | GI50 (SF-539): 39.7 µM (inactive) | GI50 (SK-MEL-28): > 100 µM (inactive) | GI50 (SK-MEL-2): 87.5 µM (inactive) | GI50 (SK-MEL-5): 24.9 µM (inactive) | GI50 (SK-OV-3): > 10 µM (inactive) | GI50 (SNB-19): > 100 µM (inactive) | GI50 (SNB-75): 27.5 µM (inactive) | GI50 (SR): 36.4 µM (inactive) | GI50 (SW-620): 69.2 µM (inactive) | GI50 (T47D): 28.6 µM (inactive) | GI50 (TK-10): > 100 µM (inactive) | GI50 (U-251): 76.7 µM (inactive) | GI50 (UACC-257): > 100 µM (inactive) | GI50 (UACC-62): 83 µM (inactive) | GI50 (UO-31): 30.4 µM (inactive)

CCC[C@H]1C(=O)N=C(N)N1C(=O)OCc1ccccc1
GI50 (786-0): > 100 µM (inactive) | GI50 (A498): > 100 µM (inactive) | GI50 (ACHN): > 100 µM (inactive) | GI50 (BT-549): > 100 µM (inactive) | GI50 (CAKI-1): > 100 µM (inactive) | GI50 (COLO 205): > 100 µM (inactive) | GI50 (EKVX): > 100 µM (inactive) | GI50 (HCC 2998): > 100 µM (inactive) | GI50 (HCT-116): > 100 µM (inactive) | GI50 (HCT-15): > 100 µM | GI50 (HL-60): > 100 µM (inactive) | GI50 (HOP-62): > 100 µM (inactive) | GI50 (HT-29): > 100 µM (inactive) | GI50 (Hs-578T): > 100 µM (inactive) | GI50 (IGROV-1): > 100 µM (inactive) | GI50 (K562): > 100 µM (inactive) | GI50 (KM12): > 100 µM (inactive) | GI50 (LOX IMVI): > 100 µM (inactive) | GI50 (MCF7): > 100 µM (inactive) | GI50 (MDA-MB-231): > 100 µM (inactive) | GI50 (MDA-MB-435): > 100 µM (inactive) | GI50 (MDA-N): > 100 µM (inactive) | GI50 (MOLT-4): > 100 µM (inactive) | GI50 (Malme-3M): > 100 µM (inactive) | GI50 (NCI-H226): > 100 µM (inactive) | GI50 (NCI-H23): > 100 µM (inactive) | GI50 (NCI-H460): > 100 µM (inactive) | GI50 (NCI-H522): > 100 µM (inactive) | GI50 (NCI/ADR-RES): > 100 µM (inactive) | GI50 (OVCAR-3): > 100 µM (inactive) | GI50 (OVCAR-4): > 100 µM (inactive) | GI50 (OVCAR-5): > 100 µM (inactive) | GI50 (OVCAR-8): > 100 µM (inactive) | GI50 (PC-3): > 100 µM (inactive) | GI50 (RPMI-8226): > 100 µM (inactive) | GI50 (RXF 393): > 100 µM (inactive) | GI50 (SF-268): > 100 µM (inactive) | GI50 (SF-295): > 100 µM (inactive) | GI50 (SF-539): > 100 µM (inactive) | GI50 (SK-MEL-28): > 100 µM (inactive) | GI50 (SK-MEL-2): > 100 µM (inactive) | GI50 (SK-MEL-5): > 100 µM (inactive) | GI50 (SN12C): > 100 µM (inactive) | GI50 (SNB-19): > 100 µM (inactive) | GI50 (SNB-75): > 100 µM (inactive) | GI50 (SR): > 100 µM (inactive) | GI50 (SW-620): > 100 µM (inactive) | GI50 (TK-10): > 100 µM (inactive) | GI50 (U-251): > 100 µM (inactive) | GI50 (UACC-257): > 100 µM (inactive) | GI50 (UACC-62): > 100 µM (inactive) | GI50 (UO-31): 86.9 µM (inactive)
